Measured values taken from patent US20250290117A1, “MOLECULAR PHENOTYPIC ANTIMICROBIAL SUSCEPTIBILITY TESTING” (priority 2024, published 2025).

Columns and labels:
Assay type in all cases: cell-based
Escherichia coli [1] = assay: Molecular phenotypic antimicrobial susceptibility test (extraction or DNA purification prior to PCR)
How it was run: (§1)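 Semi-quantitative PCR measures growth after exposure, so sensitivity means prevented growth and resistance means allowed growth. Exposure lasts 12-16 hours at single or multiple breakpoint concentrations in Mueller Hinton Broth, with the inoculum at 0.5 McFarland.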

Escherichia coli [2] = assay: Traditional culture-based antimicrobial susceptibility test
How it was run: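 E. coli isolates underwent conventional growth, isolation and exposure to antimicrobials, giving a culture-based susceptibility call for each agent.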

[3] = test system: pathogens of clinical samples; assay: Molecular phenotypic antimicrobial susceptibility test of clinical samples, extraction DNA purification step prior to PCR (Table 6)
How it was run: as §1

[4] = test system: pathogens of clinical samples; assay: Molecular phenotypic antimicrobial susceptibility test of clinical samples, direct PCR without a separate DNA purification step (Table 6)
How it was run: as §1

[5] = E. coli, clinical sample of r10-r24
[6] = E. coli, clinical sample of r158-r172
[7] = K. aerogenes, clinical sample of r136-r150
[8] = K. pneumoniae, clinical sample of r121-r135
[9] = M. morganii, clinical sample of r55-r69
[10] = M. morganii, clinical sample of r70-r84
[11] = P. mirabilis, clinical sample of r25-r39
[12] = P. mirabilis, clinical sample of r40-r54

**Q.** Which results are given for Ampicillin/Sulbactam?
**A.** Ct at Sensitive Breakpoint (Escherichia coli [1]; E. coli isolate 1, Ct at control (average) 21.238): 19.827; Molecular Antimicrobial Susceptibility Result (Escherichia coli [1]; E. coli isolate 1, at sensitive breakpoint): Resistant; Ct at Sensitive Breakpoint (Escherichia coli [1]; E. coli isolate 2, Ct at control (average) 21.270): 21.753; Molecular Antimicrobial Susceptibility Result (Escherichia coli [1]; E. coli isolate 2, at sensitive breakpoint): Resistant; Ct at Sensitive Breakpoint (Escherichia coli [1]; E. coli isolate 3, Ct at control (average) 22.0995): 20.363; Molecular Antimicrobial Susceptibility Result (Escherichia coli [1]; E. coli isolate 3, at sensitive breakpoint): Resistant; Traditional Culture Result (Escherichia coli [2]; E. coli isolate 1 (Table 3)): Resistant; Traditional Culture Result (Escherichia coli [2]; E. coli isolate 2 (Table 3)): Resistant; Traditional Culture Result (Escherichia coli [2]; E. coli isolate 3 (Table 3)): Resistant; Traditional Culture Result (Escherichia coli [2]; E. coli isolate JJ1887): Resistant; Molecular Antibiotic Susceptibility Result [3, 5]: Resistant; Ct ([3]; E. coli, clinical sample of r10-r24, Ct Control Avg 18.112): 17.123; Molecular Antibiotic Susceptibility Result [3, 6]: Sensitive (Antimicrobial wells with pathogen load detected below the control wells (typically >2 cycle thresholds later) may be reported as Sensitive); Ct ([3]; E. coli, clinical sample of r158-r172, Ct Control Avg 20.146): 29.662; Molecular Antibiotic Susceptibility Result [3, 7]: Sensitive (Antimicrobial wells with pathogen load detected below the control wells (typically >2 cycle thresholds later) may be reported as Sensitive); Ct ([3]; K. aerogenes, clinical sample of r136-r150, Ct Control Avg 19.994): 31.018; Molecular Antibiotic Susceptibility Result [3, 8]: Resistant; Ct ([3]; K. pneumoniae, clinical sample of r121-r135, Ct Control Avg 24.272): 23.602; Molecular Antibiotic Susceptibility Result [3, 9]: Sensitive (Antimicrobial wells with pathogen load detected below the control wells (typically >2 cycle thresholds later) may be reported as Sensitive); Ct ([3]; M. morganii, clinical sample of r55-r69, Ct Control Avg 28.86): 37.093; Molecular Antibiotic Susceptibility Result [3, 10]: Sensitive (Antimicrobial wells with pathogen load detected below the control wells (typically >2 cycle thresholds later) may be reported as Sensitive); Ct ([3]; M. morganii, clinical sample of r70-r84, Ct Control Avg 27.053): Undet; Molecular Antibiotic Susceptibility Result [3, 11]: Sensitive (Antimicrobial wells with pathogen load detected below the control wells (typically >2 cycle thresholds later) may be reported as Sensitive); Ct ([3]; P. mirabilis, clinical sample of r25-r39, Ct Control Avg 26.064): 33.809; Molecular Antibiotic Susceptibility Result [3, 12]: Sensitive (Antimicrobial wells with pathogen load detected below the control wells (typically >2 cycle thresholds later) may be reported as Sensitive); Ct ([3]; P. mirabilis, clinical sample of r40-r54, Ct Control Avg 26.987): 36.062; Molecular Antibiotic Susceptibility Result [4, 5]: Resistant; Ct ([4]; E. coli, clinical sample of r10-r24, Ct control avg 12.97): 13.482; Molecular Antibiotic Susceptibility Result [4, 6]: Sensitive (Antimicrobial wells with pathogen load detected below the control wells (typically >2 cycle thresholds later) may be reported as Sensitive); Ct ([4]; E. coli, clinical sample of r158-r172, Ct control avg 12.894): 27.583; Molecular Antibiotic Susceptibility Result [4, 7]: Sensitive (Antimicrobial wells with pathogen load detected below the control wells (typically >2 cycle thresholds later) may be reported as Sensitive); Ct ([4]; K. aerogenes, clinical sample of r136-r150, Ct control avg 13.854): 29.276; Molecular Antibiotic Susceptibility Result [4, 8]: Resistant; Ct ([4]; K. pneumoniae, clinical sample of r121-r135, Ct control avg […]): 15.608; Molecular Antibiotic Susceptibility Result [4, 9]: Sensitive (Antimicrobial wells with pathogen load detected below the control wells (typically >2 cycle thresholds later) may be reported as Sensitive); Ct ([4]; M. morganii, clinical sample of r55-r69, Ct control avg 12.09): 26.942; Molecular Antibiotic Susceptibility Result [4, 10]: Sensitive (Antimicrobial wells with pathogen load detected below the control wells (typically >2 cycle thresholds later) may be reported as Sensitive); Ct ([4]; M. morganii, clinical sample of r70-r84, Ct control avg 11.677): 32.39; Molecular Antibiotic Susceptibility Result [4, 11]: Sensitive (Antimicrobial wells with pathogen load detected below the control wells (typically >2 cycle thresholds later) may be reported as Sensitive); Ct ([4]; P. mirabilis, clinical sample of r25-r39, Ct control avg 11.801): 28.121; Molecular Antibiotic Susceptibility Result [4, 12]: Sensitive (Antimicrobial wells with pathogen load detected below the control wells (typically >2 cycle thresholds later) may be reported as Sensitive); Ct ([4]; P. mirabilis, clinical sample of r40-r54, Ct control avg 10.06): 30.953
